# Literature values in patent US10279004B2, “Methods and compositions for enhancing or maintaining fertility” (Quality IP Holdings, LLC, priority 2016, dated 2019).
# What was measured:
# hGH = settings: for effect on hGH: other amino acids, literature
# [1] = subcutaneous injection of 0.06 IU in hGH deficient subjects
Compound,effect on hGH (hGH),further results
N=C(N)NCCC[C@H](N)C(=O)O [arginine],–,elevation of serum hGH levels (hGH; 30 g in males): 8.6 fold; increase in hGH levels (hGH; intravenous infusion of 183 mg/kg body weight in females): > 20 fold
N[C@@H](Cc1c[nH]cn1)C(=O)O [histidine],marked increases in hGH,–
NCCCC[C@H](N)C(=O)O [lysine],marked increases in hGH,–
CSCC[C@H](N)C(=O)O [methionine],marked increases in hGH,–
NCCC[C@H](N)C(=O)O [ornithine],marked increases in hGH,–
N[C@@H](Cc1ccccc1)C(=O)O [phenylalanine],marked increases in hGH,–
"hGH: human growth hormone, available in injectable forms",–,"mean level of hGH reached [1]: 0.4 ng/mL; probability of clinical pregnancy (administration during ovarian stimulation phase of IVF cycles): increase the probability of clinical pregnancy; body composition in hGH-deficient adults (within months of hGH treatment): gains in lean body mass, skin thickness, and muscle mass are observed"
